Experimental data taken from PubChem BioAssay (NCI).
“And” between values parts separate entries of the source, which are not always exact repeats. Equal values may be shown once.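 Exposure lasted 48 hours, with cells grown in 96-well plates and compounds tested at five concentrations. GI50 is the concentration that inhibits growth by half. The concentration for full growth arrest is given as TGI.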

Legend:
Assay in all cases: NCI tumour cell line growth inhibition, 48 h
[1] = tested on: MOLT-4 leukemia
[2] = tested on: LXFL 529 NSCLC
[3] = tested on: U251 CNS
[4] = tested on: SK-OV-3 ovarian
[5] = tested on: KM20L2 colon
[6] = tested on: UACC-62 melanoma
[7] = tested on: DMS 273 small cell lung
[8] = tested on: DLD-1 colon
[9] = tested on: UACC-257 melanoma
[10] = tested on: HL-60(TB) leukemia
[11] = tested on: MDA-MB-231 breast
[12] = tested on: MCF7 breast

SMILES | TGI [1] | TGI [2] | TGI [3] | TGI [4] | TGI [5] | TGI [6] | TGI [7] | TGI [8] | TGI [9] | TGI [10] | GI50 [1] | GI50 [3] | GI50 [4] | GI50 [6] | GI50 [11] | TGI [11] | GI50 [12] | TGI [12] | GI50 [9] | GI50 [10]
C[Si](C)(C)/C(Br)=C\CCN1C(=O)CCC1=O | > 100 µM | > 100 µM | > 100 µM | > 100 µM | > 100 µM | > 100 µM | > 100 µM | > 100 µM | > 100 µM | > 100 µM |  |  |  |  |  |  |  |  |  | 
CC(=O)N1CCC(=O)/C(=C/c2ccccc2)C1 | > 100 µM | 47.2 µM | 34.3 µM | > 100 µM | > 100 µM | 82.7 µM | > 100 µM | 66.2 µM | > 100 µM |  |  |  |  |  |  |  |  |  |  | 
C=CCN1CCC23c4c5ccc(O)c4OC2C(=NN=C2CCC4(O)C6Cc7ccc(O)c8c7C4(CCN6CC=C)C2O8)CCC3(O)C1C5 (stereo not given) | > 100 µM | 88.7 µM | 34.9 µM | > 100 µM | 47.8 µM | 44.4 µM | 37.7 µM | > 100 µM | 53.2 µM |  |  |  |  |  |  |  |  |  |  | 
CSc1nc(NC2OC(COC(C)=O)C(OC(C)=O)C(OC(C)=O)C2OC(C)=O)c(N=CC=Nc2c(NC3OC(COC(C)=O)C(OC(C)=O)C(OC(C)=O)C3OC(C)=O)nc(SC)n(C)c2=O)c(=O)n1C (stereo not given) | > 100 µM | > 100 µM | 50 µM and > 100 µM | > 50 µM and 80.1 µM | > 100 µM | > 100 µM | > 100 µM | > 100 µM | > 100 µM | > 100 µM | > 50 µM | 20.6 µM | > 50 µM | > 50 µM | 25.2 µM | 50 µM and > 100 µM | > 50 µM | > 100 µM | > 50 µM | > 50 µM
[N-]=[N+]=N/C1=C/CCCCC(=O)C1 | > 100 µM | > 100 µM |  | > 100 µM | > 100 µM | > 100 µM | > 100 µM | > 100 µM | > 100 µM | > 100 µM |  |  |  |  |  |  |  |  |  | 
C[C@]12CCC(=O)C=C1CC[C@@H]1C2CC[C@]2(C)Nc3[nH]ncc3CC12 (stereo not given in full) | > 100 µM | > 100 µM | > 100 µM | > 100 µM | > 100 µM | > 100 µM | > 100 µM | > 100 µM | > 100 µM | > 100 µM |  |  |  |  |  |  |  |  |  | 
COC(=O)C1=C(C(=O)OC)C2=S(SC3=C2CCCC3)S1 (stereo not given) | > 100 µM | 30 µM | 70.1 µM | > 100 µM | 76.5 µM | > 100 µM | 34.2 µM | > 100 µM | > 100 µM | 30.9 µM |  |  |  |  |  |  |  |  |  | 
COc1cc2c3c(c1OC)-c1cc4c(cc1CC3(C#N)N(C(=O)c1ccccc1)CC2)OCO4 (stereo not given) | > 100 µM | 56.3 µM | 53.5 µM | 44.4 µM | > 100 µM | 43.2 µM | > 79.4 µM | > 100 µM | > 100 µM | > 100 µM |  |  |  |  |  | > 100 µM |  | > 100 µM |  | 
CS/C(=C(\S)c1ccccc1)c1ccccc1 |  | > 100 µM | > 100 µM | > 100 µM | > 31.6 µM | > 100 µM | > 100 µM | > 100 µM | > 100 µM | > 100 µM |  |  |  |  |  |  |  |  |  | 
CCOC(=O)c1ccc(N=Nc2cc(C(=O)OCC)ccc2O)cc1 | > 100 µM | > 100 µM | > 100 µM | > 100 µM | > 100 µM | > 100 µM | > 100 µM | > 100 µM |  | > 100 µM |  |  |  |  |  |  |  |  |  | 
O=C1CCC(=O)c2c1c(O)c1ccncc1c2O | 43.1 µM | 30.2 µM | 64.3 µM | 98.8 µM | 49.8 µM | 20.1 µM | 37.7 µM | 28.1 µM | 20.2 µM | 26.4 µM |  |  |  |  |  |  |  |  |  | 
CC(C)(C)[Si](C)(C)OC1C(=O)C[C@H]2CCCC[C@@H]12 (stereo not given in full) | > 100 µM | > 100 µM | > 100 µM | > 100 µM | > 100 µM | > 100 µM | > 100 µM | > 100 µM | > 100 µM | > 100 µM |  |  |  |  |  |  |  |  |  | 
Cc1ccc(S(=O)OCc2c(C)c(C)c(COS(=O)c3ccc(C)cc3)c(C)c2C)cc1 (stereo not given) | > 100 µM | > 100 µM | > 100 µM | > 100 µM | > 100 µM | > 100 µM | > 100 µM | > 100 µM | > 100 µM | > 100 µM |  |  |  |  |  |  |  |  |  | 
C/C(=N\NC(=S)N1CCCCCC1)c1ccccn1 | 3.46 µM and > 31.9 µM | 0.19 µM and 0.405 µM | 1.24 µM and 1.29 µM | 2.28 µM |  | 0.33 µM and 0.268 µM | 1.69 µM and 2.13 µM | 1.38 µM and 4.44 µM | 0.83 µM and 0.969 µM | 0.185 µM |  | < 0.0131 µM |  |  | 0.147 µM | 5.31 µM and 9.96 µM |  | 0.0245 µM |  | 
